Measurements reported in US20260102428A1, “COMPOSITIONS AND METHODS FOR THE INHIBITION OF METHICILLIN RESISTANT STAPHYLOCOCCUS AUREUS” (priority 2022, published 2026).
“And” between values parts separate entries of the source, which are not always exact repeats. Identical values can stand only once. Counter-ions that a name gives are not always drawn. Bridge positions count the residues as written; N and C are the ends. Square brackets hold non-standard residues; d marks the D form. Peptide text beside a SMILES is read from it. * marks the point of attachment. Ileψ(thiazoline)Cys = CC[C@H](C)[C@H](N)C1=N[C@H](C(=O)*)CS1; dOrn = NCCC[C@@H](N)C(=O)O

Tests used:
S. aureus JE2 = format: cell-based, Staphylococcus aureus; details: 0.25-4× MIC, daily passage 1:100
USA300-LAC [1] = assay: Minimal inhibitory concentration by dose-response curves (A600); format: cell-based, Staphylococcus aureus; details: for Antibacterial activity (MIC) without metal: 1×RPMI 1640, no added metal
[2] = test system: clinical multidrug-resistant MRSA isolates; assay: Minimal inhibitory concentration against clinical isolates (dose-response curves)
Procedure: Growth was determined after 20 h of incubation at 37° C. using A600 measurements as a readout. Percentage growth was calculated by normalizing the A600 measurements relative to that of the compound-untreated control of each metal condition. Data represent the mean±SEM (n=3 biological replicates, 3 technical replicates each). […] Data represent the mean±SEM (n=3 biological replicates, 3 technical replicates each).
All S. aureus strains utilized in this study were routinely cultured in Mueller-Hinton medium at 37° C. shaking at 180 rpm prior to transfer into experiment-specific media. […] Lastly, clinical multi-drug resistant MRSA strains were isolated, characterized for clinical drug resistance, de-identified, and obtained from UAB Laboratory Medicine.
The minimal inhibitory concentration (MIC) of the tested compounds was determined using dose-response curves as previously described. Briefly, each strain was cultured to mid-exponential phase in MH medium, as determined by OD600 measurement. S. aureus cultures were then normalized to an OD600 of 0.005 for transfer into the assay plates. Each strain was treated with compounds serially titrated in the assay medium in 96-well flat-bottom plastic plates with or without either CuSO4 or ZnSO4. Compound-untreated samples for each metal condition were used as negative controls. S. aureus were treated for 18-20 hours at 37° C. and 5% CO2. Following the treatment period, bacterial growth was determined by measuring the absorbance of each well at 600 nm using a Biotek Cytation 3 plate reader. Measurements were then background adjusted and normalized to either the untreated control or the metal only control.

[3] = reported values; cited from earlier work
MRSA strain USA300-LAC = assay: Zn(II)/Cu-dependent antibiotic screening of the Selleckchem bioactives library (resazurin growth readout); format: cell-based, Staphylococcus aureus; details: compound 10 μM, hit = growth reduced by at least 50%; for Activity class in Zn-dependent screening: with vs without 25 μM ZnSO4, 1×RPMI 1640; for Activity class in Cu-dependent screening: with vs without 25 μM CuSO4, 1×RPMI 1640
USA300-LAC [4] = details: ZnSO4 titrated against compound, 1×RPMI 1640
[5] = Binding constant determination by UV/Vis-absorption titration
Procedure: Binding constants were determined using UV/Vis-absorption spectroscopy by titrating AVB with Cu(I), Cu(II), and Zn(II). Briefly, 1 mM AVB in 100% anhydrous DMSO was titrated in HEPES (4-(2-hydroxyethyl)-1-piperazineethanesulfonic acid) buffer (pH=7.2-7.4) with 800 μM CuBr, CuSO4, or ZnSO4 at the following concentrations: 0 μM, 25 μM, 50 μM, 75 μM, 100 μM, and 150 μM. Once the gradient of solutions was prepared, full spectrum UV/Vis-absorption spectroscopy was performed to detect characteristic spectral changes that occur as a consequence of metal cation binding. Binding constants were calculated by importing the spectra of individual titrations with each metal into the UV 1:1 Bindfit program.

human cells = assay: Eukaryotic toxicity assays, overall statement; format: cell-based; details: 0.4-30 μM ± 15 μM Zn, 24 hours
[6] = test system: erythromycin-resistant group A Streptococcus, methicillin-resistant Staphylococcus aureus, and vancomycin-resistant Enterococcus; details: cited from earlier work
[7] = CuBr, HEPES buffer pH 7.2-7.4, UV 1:1 Bindfit
[8] = CuSO4, HEPES buffer pH 7.2-7.4, UV 1:1 Bindfit
[9] = ZnSO4, HEPES buffer pH 7.2-7.4, UV 1:1 Bindfit

Compound: CO[C@H]1/C=C/O[C@@]2(C)Oc3c(C)c(O)c4c(O)c(c(/C=N/N5CCN(C)CC5)c(O)c4c3C2=O)NC(=O)/C(C)=C\C=C\[C@H](C)[C@H](O)[C@@H](C)[C@@H](O)[C@@H](C)[C@H](OC(C)=O)[C@@H]1C [Rifampicin]
- Day from which resistant clones could be isolated (S. aureus JE2): 5 days

Compound: bacitracin-Zn
- MIC of bacitracin-Zn relative to that of AVB-Zn (USA300-LAC [1]; with 25 μM ZnSO4): four-fold higher
- MIC / resistance ([2]; isolate CI-2, with 25 μM ZnSO4): fully resistant
- MIC / resistance ([2]; isolate CI-3, with 25 μM ZnSO4): fully resistant
- MIC ([2]; isolate CI-4, with 25 μM ZnSO4): 10 µM
- MIC ([2]; isolate CI-5, with 25 μM ZnSO4): 10 µM
- MIC ([2]; isolate CI-1320, with Zn): 2 µM
- MIC / resistance ([2]; isolate CI-1321, with Zn): partially resistance
- MIC / resistance ([2]; isolate CI-1323, with Zn): resistant to bacitracin-Zn at all concentrations tested
- MIC / resistance ([2]; isolate CI-1324, with Zn): resistant to bacitracin-Zn at all concentrations tested
- MIC ([2]; isolate CI-1328, with Zn): 2 µM

Compound: O=C(O)CN(CCN(CC(=O)O)CC(=O)O)CC(=O)O [EDTA, 2,2′,2″,2′″-(Ethane-1,2-diyldinitrilo)tetraacetic acid]
- KD of high-affinity metal chelators [3]: picomolar to femtomolar range

Compound: CC/C(=C(\c1ccccc1)c1ccc(OCCN(C)C)cc1)c1ccccc1 [tamoxifen]
- Activity class in Zn-dependent screening (MRSA strain USA300-LAC): Zn-activated

Compound: CC[C@H](C)[C@H](N)C1=N[C@H](C(=O)N[C@@H](CC(C)C)C(=O)N[C@H](CCC(=O)O)C(=O)N[C@H](C(=O)N[C@H]2CCCCNC(=O)[C@H](CC(N)=O)NC(=O)[C@@H](CC(=O)O)NC(=O)[C@H](Cc3cnc[nH]3)NC(=O)[C@@H](Cc3ccccc3)NC(=O)[C@H]([C@@H](C)CC)NC(=O)[C@@H](CCCN)NC2=O)[C@@H](C)CC)CS1 [Bacitracin] ({Ileψ(thiazoline)Cys}-L[dE]IK[dOrn]I[dF]H[dD]N; lactam 4-C)
- Zn concentration required for full activity / MIC (USA300-LAC [4]): 10 µM
- Antibacterial activity (MIC) without metal (USA300-LAC [1]): completely inactive
- MIC (USA300-LAC [1]; with 25 μM CuSO4, 1×RPMI 1640, 20 h 37° C.): could not be activated by Cu
- KA [5, 7]: 9299 M⁻¹
- Kd [5, 7]: 108 µM
- KA [5, 8]: 738,233 M^−1
- Kd [5, 8]: 1.4 µM and 1.35 µM
- KA [5, 9]: 172,757 M^−1
- Kd [5, 9]: 5.7 µM and 5.79 µM
- Activity class in Cu-dependent screening (MRSA strain USA300-LAC): not independent or Cu-dependent action
- Activity class in Zn-dependent screening (MRSA strain USA300-LAC): Zn-dependent

Compound: Clc1ccc(C(Cn2ccnc2)OCc2ccsc2Cl)c(Cl)c1 (stereo not shown) [tioconazole]
- Activity class in Zn-dependent screening (MRSA strain USA300-LAC): Zn-activated

Compound: COc1ccc(C(=O)CC(=O)c2ccc(C(C)(C)C)cc2)cc1 [Avobenzone, 1-(4-tert-butylphenyl)-3-(4-methoxyphenyl)propane-1,3-dione]
- Zn concentration required for full activity / MIC (USA300-LAC [4]): 1.25 to 10 µM
- Antibacterial activity (MIC) without metal (USA300-LAC [1]): no antibacterial activity
- Cytotoxicity (human cells): no relevant cytotoxicity
- KA [5, 7]: 6900 M⁻¹
- Kd [5, 7]: 115 µM
- KA [5, 8]: 225,279 M^−1
- Kd [5, 8]: 4.43 µM
- Kd ([5]; CuSO4, HEPES buffer pH 7.2-7.4, UV 1:1 Bindfit, listed as AVB): 4.4 µM
- KA [5, 9]: 168,982 M^−1
- Kd [5, 9]: 5.92 µM
- Kd ([5]; ZnSO4, HEPES buffer pH 7.2-7.4, UV 1:1 Bindfit, listed as AVB): 5.9 µM
- Activity class in Cu-dependent screening (MRSA strain USA300-LAC): activated by both Zn and Cu
- Activity class in Zn-dependent screening (MRSA strain USA300-LAC): activated by both Zn and Cu

Compound: CN(C)CCOc1ccc(/C(=C(/CCCl)c2ccccc2)c2ccccc2)cc1 [toremifene citrate]
- Activity class in Zn-dependent screening (MRSA strain USA300-LAC): Zn-activated

Compound: CN(C)Cc1ccc2c(Cl)cc(Cl)c(O)c2n1 [PTB2]
- Zinc concentrations required for antibacterial activity [6]: 400 to 600 µM

Compound: c1ccc(-c2ccc(C(c3ccccc3)n3ccnc3)cc2)cc1 (stereo not shown) [bifonazole]
- Activity class in Zn-dependent screening (MRSA strain USA300-LAC): Zn-activated

Compound: Clc1ccccc1C(c1ccccc1)(c1ccccc1)n1ccnc1 [clotrimazole]
- Activity class in Zn-dependent screening (MRSA strain USA300-LAC): Zn-activated

Compound: c1ccc(CN(CCN(Cc2ccccn2)Cc2ccccn2)Cc2ccccn2)nc1 [TPEN, N,N,N′,N′-tetrakis(2-pyridinylmethyl)-1,2-ethanediamine]
- KD of high-affinity metal chelators [3]: picomolar to femtomolar range
